In patent US20250236639A1, “NEUROACTIVE STEROIDS AND COMPOSITIONS THEREOF” (Sage Therapeutics, Inc., priority 2019, published 2025):

Biological target: GABAA receptor
Experiment: Steroid inhibition of [35S]-TBPS binding, rat brain cortical membranes
Details: 3 nM [35S]-TBPS, in the presence of 5 mM GABA
Protocol: [^35S]-t-Butylbicyclophosphorothionate (TBPS) binding assays using rat brain cortical membranes in the presence of 5 mM GABA has been described (Gee et al, J. Pharmacol. Exp. Ther. 1987, 241, 346-353; Hawkinson et al, Mol. Pharmacol. 1994, 46, 977-985; Lewin, A. H et al., Mol. Pharmacol. 1989, 35, 189-194).
Briefly, cortices are rapidly removed following decapitation of carbon dioxide-anesthetized Sprague-Dawley rats (200-250 g). The cortices are homogenized in 10 volumes of ice-cold 0.32 M sucrose using a glass/teflon homogenizer and centrifuged at 1500×g for 10 min at 4° C. The resultant supernatants are centrifuged at 10,000×g for 20 min at 4° C. to obtain the P2 pellets. The P2 pellets are resuspended in 200 mM NaCl/50 mM Na—K phosphate pH 7.4 buffer and centrifuged at 10,000×g for 10 min at 4° C. This washing procedure is repeated twice and the pellets are resuspended in 10 volumes of buffer. Aliquots ([…]) of the membrane suspensions are incubated with 3 nM [^35S]-TBPS and […] aliquots of test drug dissolved in dimethyl sulfoxide (DMSO) (final 0.5%) in the presence of 5 mM GABA. The incubation is brought to a final volume of 1.0 mL with buffer. Nonspecific binding is determined in the presence of […] and ranged from 15 to 25%. Following a 90 min incubation at room temp, the assays are terminated by filtration through glass fiber filters (Schleicher and Schuell No. 32) using a cell harvester (Brandel) and rinsed three times with ice-cold buffer. Filter bound radioactivity is measured by liquid scintillation spectrometry. Non-linear curve fitting of the overall data for each drug averaged for each concentration is done using Prism (GraphPad). […] The concentration of test compound producing 50% inhibition (IC50) of specific binding and the maximal extent of inhibition (Imax) are determined for the individual experiments with the same model used for the overall data and then the means±SEM.s of the individual experiments are calculated.
Various compounds are or can be screened to determine their potential as modulators of [^35S]-TBPS binding in vitro. These assays are or can be performed in accordance with the above

| SMILES | IC50 |
| --- | --- |
| COC[C@H]1C[C@H]2[C@H](CC[C@@H]3[C@@H]2CC[C@@]2(C)[C@H]3CC[C@@H]2[C@@](C)(O)Cn2cc(C#N)cn2)C[C@]1(C)O [Compound 59, 1-((R)-2-hydroxy-2-((2R,3S,5R,8R,9R,10S,13S,14S,17S)-3-hydroxy-2-(methoxymethyl)-3,13-dimethylhexadecahydro-1H-cyclopenta[a]phenanthren-17-yl)propyl)-1H-pyrazole-4-carbonitrile] | 100 to 1000 nM |
| CC[C@@]1(O)CC[C@H]2[C@@H](CC[C@@H]3[C@@H]2CC[C@@]2(C)[C@H]3CC[C@@H]2[C@](C)(O)Cn2cc(C#N)cn2)C1 [Compound 13, 1-((S)-2-((3R,5S,8R,9R,10S,13S,14S,17S)-3-ethyl-3-hydroxy-13-methylhexadecahydro-1H-cyclopenta[a]phenanthren-17-yl)-2-hydroxypropyl)-1H-pyrazole-4-carbonitrile] | 100 to 1000 nM |
| CC[C@]12CC[C@](O)(COC)C[C@H]1CC[C@H]1[C@@H]3CC[C@H]([C@](C)(O)Cn4cc(C#N)cn4)[C@@]3(C)CC[C@@H]12 [Compound 42, 1-((S)-2-((3R,5R,8S,9S,10S,13S,14S,17S)-10-ethyl-3-hydroxy-3-(methoxymethyl)-13-methylhexadecahydro-1H-cyclopenta[a]phenanthren-17-yl)-2-hydroxypropyl)-1H-pyrazole-4-carbonitrile] | < 100 nM |
| CCC[C@@]1(O)CC[C@@]2(C)[C@@H](CC[C@@H]3[C@@H]2CC[C@@]2(C)[C@H]3CC[C@@H]2[C@](C)(O)Cn2cc(C#N)cn2)C1 [Compound 17, 1-((S)-2-hydroxy-2-((3R,5S,8R,9S,10S,13S,14S,17S)-3-hydroxy-10,13-dimethyl-3-propylhexadecahydro-1H-cyclopenta[a]phenanthren-17-yl)propyl)-1H-pyrazole-4-carbonitrile] | 100 to 1000 nM |
| CC[C@]12CC[C@](O)(COC)C[C@H]1CC[C@H]1[C@@H]3CC[C@H]([C@@](C)(O)Cn4cc(C#N)cn4)[C@@]3(C)CC[C@@H]12 [Compound 43, 1-((R)-2-((3R,5R,8S,9S,10S,13S,14S,17S)-10-ethyl-3-hydroxy-3-(methoxymethyl)-13-methylhexadecahydro-1H-cyclopenta[a]phenanthren-17-yl)-2-hydroxypropyl)-1H-pyrazole-4-carbonitrile] | < 100 nM |
| COC[C@@H]1C[C@H]2[C@H](CC[C@@H]3[C@@H]2CC[C@@]2(C)[C@H]3CC[C@@H]2[C@](C)(O)Cn2cc(C#N)cn2)C[C@]1(C)O [Compound 58A, 1-((S)-2-hydroxy-2-((2S,3S,5R,8R,9R,10S,13S,14S,17S)-3-hydroxy-2-(methoxymethyl)-3,13-dimethylhexadecahydro-1H-cyclopenta[a]phenanthren-17-yl)propyl)-1H-pyrazole-4-carbonitrile] | < 100 nM |
| CCOC[C@@]1(O)CC[C@@]2(C)[C@H](CC[C@@H]3[C@@H]2CC[C@@]2(C)[C@H]3CC[C@@H]2[C@](C)(O)Cn2cc(C#N)cn2)C1 [Compound 24, 1-((S)-2-((3R,5R,8R,9S,10S,13S,14S,17S)-3-(ethoxymethyl)-3-hydroxy-10,13-dimethylhexadecahydro-1H-cyclopenta[a]phenanthren-17-yl)-2-hydroxypropyl)-1H-pyrazole-4-carbonitrile] | < 100 nM |
| CC[C@]12CC[C@@](C)(O)C[C@H]1CC[C@H]1[C@@H]3CC[C@H]([C@@](C)(O)Cn4cc(C#N)cn4)[C@@]3(C)CC[C@@H]12 [Compound 4, 1-((R)-2-((3R,5R,8S,9S,10S,13S,14S,17S)-10-ethyl-3-hydroxy-3,13-dimethylhexadecahydro-1H-cyclopenta[a]phenanthren-17-yl)-2-hydroxypropyl)-1H-pyrazole-4-carbonitrile] | < 100 nM |
| CC(=O)c1cnn(C[C@@](C)(O)[C@H]2CC[C@H]3[C@@H]4CC[C@@H]5C[C@](C)(O)CC[C@@H]5[C@H]4CC[C@@]32C)c1 [Compound 31, 1-(1-((S)-2-hydroxy-2-((3R,5R,8R,9R,10S,13S,14S,17S)-3-hydroxy-3,13-dimethylhexadecahydro-1H-cyclopenta[a]phenanthren-17-yl)propyl)-1H-pyrazol-4-yl)ethanone] | < 100 nM |
| COC[C@@]1(O)CC[C@@]2(C)[C@H](CC[C@@H]3[C@@H]2CC[C@@]2(C)[C@H]3CC[C@@H]2[C@](C)(Cn2cc(C#N)cn2)OC)C1 [Compound 55, 1-((R)-2-((3R,5R,8R,9S,10S,13S,14S,17S)-3-hydroxy-3-(methoxymethyl)-10,13-dimethylhexadecahydro-1H-cyclopenta[a]phenanthren-17-yl)-2-methoxypropyl)-1H-pyrazole-4-carbonitrile] | 100 to 1000 nM |
| CC[C@]12CC[C@@](C)(O)C[C@H]1CC[C@H]1[C@@H]3CC[C@H]([C@](C)(Cn4cc(C#N)cn4)OC)[C@@]3(C)CC[C@@H]12 [Compound 6, 1-((R)-2-((3R,5R,8S,9S,10S,13S,14S,17S)-10-ethyl-3-hydroxy-3,13-dimethylhexadecahydro-1H-cyclopenta[a]phenanthren-17-yl)-2-methoxypropyl)-1H-pyrazole-4-carbonitrile] | < 100 nM |
| CCC[C@@]1(O)CC[C@H]2[C@H](CC[C@@H]3[C@@H]2CC[C@@]2(C)[C@H]3CC[C@@H]2[C@](C)(O)Cn2ccc(C#N)n2)C1 [Compound 22, 1-((S)-2-hydroxy-2-((3R,5R,8R,9R,10S,13S,14S,17S)-3-hydroxy-13-methyl-3-propylhexadecahydro-1H-cyclopenta[a]phenanthren-17-yl)propyl)-1H-pyrazole-3-carbonitrile] | < 100 nM |
| CO[C@@H]1C[C@H]2[C@H](CC[C@@H]3[C@@H]2CC[C@@]2(C)[C@H]3CC[C@@H]2[C@](C)(O)Cn2cc(C#N)cn2)C[C@]1(C)O [Compound 60, 1-((S)-2-hydroxy-2-((2R,3S,5R,8R,9R,10S,13S,14S,17S)-3-hydroxy-2-methoxy-3,13-dimethylhexadecahydro-1H-cyclopenta[a]phenanthren-17-yl)propyl)-1H-pyrazole-4-carbonitrile] | < 100 nM |
| COC[C@@]1(O)CC[C@@]2(C)[C@H](CC[C@@H]3[C@@H]2CC[C@@]2(C)[C@H]3CC[C@@H]2[C@@](C)(Cn2cc(C#N)cn2)OC)C1 [Compound 54, 1-((S)-2-((3R,5R,8R,9S,10S,13S,14S,17S)-3-hydroxy-3-(methoxymethyl)-10,13-dimethylhexadecahydro-1H-cyclopenta[a]phenanthren-17-yl)-2-methoxypropyl)-1H-pyrazole-4-carbonitrile] | 100 to 1000 nM |
| CC[C@H]1C[C@H]2[C@H](CC[C@@H]3[C@@H]2CC[C@@]2(C)[C@H]3CC[C@@H]2[C@@](C)(O)Cn2cc(C#N)cn2)C[C@]1(C)O [Compound 35, 1-((R)-2-((2S,3S,5R,8R,9R,10S,13S,14S,17S)-2-ethyl-3-hydroxy-3,13-dimethylhexadecahydro-1H-cyclopenta[a]phenanthren-17-yl)-2-hydroxypropyl)-1H-pyrazole-4-carbonitrile] | 100 to 1000 nM |
